Reference: US20240390360A1, “Therapeutic Combinations Of Orally Administered Paclitaxel, A P-gp Inhibitor, And A Checkpoint Inhibitor For The Treatment Of Solid Tumors” (Athenex, Inc., priority 2021, published 2024)

Tests used:
[1] = tested on: subjects with advanced solid tumours; assay type: in vivo
[2] = tested on: non-small cell lung cancer; experiment: Best responses of the NSCLC subjects to prior anti-PD-1/anti-PD-L1 therapy; assay type: in vivo, human; conditions: prior therapy before this study (five pembrolizumab, three nivolumab, two atezolizumab), all discontinued due to progressive disease

COc1cc2c(cc1OC)CN(CCc1ccc(-n3nnc(-c4cc(OC)c(OC)cc4NC(=O)c4cc(=O)c5ccccc5o4)n3)cc1)CC2 [Compound A]
recommended Phase 2 dose (RP2D) ([1]; QD Days 1-3 (Days 1-3, 8-10) for 2 weeks of a 3-week cycle, in combination with pembrolizumab): 15 mg

atezolizumab: prior immunotherapy (anti-PD-L1) of NSCLC subjects
best response to the prior immunotherapy: SD, number of subjects [2]: 1 | best response to the prior immunotherapy: response (non-RECIST), number of subjects [2]: 1

pembrolizumab: checkpoint inhibitor, administered intravenously
fatal pneumonitis, number ([1]; cohort six during cycle 8, attributed to pembrolizumab): One
